Reference: patent US20050197350A1, “Novel quinoline, tetrahydroquinazoline, and pyrimidine derivatives and methods of treatment related to the use thereof” (TAISHO PHARMACEUTICAL CO., LTD., priority 2003, published 2005)

system: MCH receptors; assay: MCH receptor activity class (method not given); settings: class by percent of control at 10^-7 M or IC50

SMILES	class
COc1cc(CC(=O)N[C@H]2CC[C@@H](Nc3cc(N(C)C)c4ccccc4n3)CC2)cc(OC)c1O [compound 700]	3 (Class 3 The value of percent of control at 10^−7 M was more than 60% or the value of IC50 was more than 200 nM.)
CN(C)c1cc(N[C@H]2CC[C@@H](NC(=O)c3cc(Br)c(Br)s3)CC2)nc2ccccc12 [compound 701]	2 (Class 2: The value of percent of control at 10^−7 M was from 40% to 60% or the value of IC′50 was from 50 nM to 200 nM.)
COc1cc(CC(=O)N[C@H]2CC[C@@H](Nc3cc(N(C)C)c4ccccc4n3)CC2)cc(OC)c1 [compound 702]	3 (Class 3 The value of percent of control at 10^−7 M was more than 60% or the value of IC50 was more than 200 nM.)
CN(C)c1cc(N[C@H]2CC[C@@H](NC(=O)Cc3cc(C(C)(C)C)c(O)c(C(C)(C)C)c3)CC2)nc2ccccc12 [compound 703]	3 (Class 3 The value of percent of control at 10^−7 M was more than 60% or the value of IC50 was more than 200 nM.)
CN(C)c1cccc(C(=O)N[C@H]2CC[C@@H](Nc3cc(N(C)C)c4ccccc4n3)CC2)c1 [compound 705]	3 (Class 3 The value of percent of control at 10^−7 M was more than 60% or the value of IC50 was more than 200 nM.)
CN(C)c1cc(N[C@H]2CC[C@@H](NC(=O)c3cc(Br)c(Br)o3)CC2)nc2ccccc12 [compound 706]	1 (Class 1: The value of percent of control at 10^−7 M was less than 40% or the value of IC50 was less than 50 nM.)
CN(C)c1cc(N[C@H]2CC[C@@H](NC(=O)CCC(=O)c3ccc(F)cc3)CC2)nc2ccccc12 [compound 707]	3 (Class 3 The value of percent of control at 10^−7 M was more than 60% or the value of IC50 was more than 200 nM.)
CN(C)c1cc(N[C@H]2CC[C@@H](NC(=O)[C@H](Cc3cn(Cc4ccccc4)cn3)NC(=O)OC(C)(C)C)CC2)nc2ccccc12 [compound 709]	3 (Class 3 The value of percent of control at 10^−7 M was more than 60% or the value of IC50 was more than 200 nM.)
CN(C)c1cc(N[C@H]2CC[C@@H](NC(=O)Cc3c[nH]c4ccccc34)CC2)nc2ccccc12 [compound 711, N-(cis-4-{[4-(dimethylamino)quinolin-2-yl]amino}cyclohexyl)-2-(1H-indol-3-yl)acetamide]	1 (Class 1: The value of percent of control at 10^−7 M was less than 40% or the value of IC50 was less than 50 nM.)
Cc1sc(-c2ccccc2)nc1CC(=O)N[C@H]1CC[C@@H](Nc2cc(N(C)C)c3ccccc3n2)CC1 [compound 712]	3 (Class 3 The value of percent of control at 10^−7 M was more than 60% or the value of IC50 was more than 200 nM.)
COc1ccc(CSC2(CC(=O)N[C@H]3CC[C@@H](Nc4cc(N(C)C)c5ccccc5n4)CC3)CCCCC2)cc1 [compound 714]	3 (Class 3 The value of percent of control at 10^−7 M was more than 60% or the value of IC50 was more than 200 nM.)
COc1ccc2c(CC(=O)N[C@H]3CC[C@@H](Nc4cc(N(C)C)c5ccccc5n4)CC3)cc(=O)oc2c1 [compound 715]	3 (Class 3 The value of percent of control at 10^−7 M was more than 60% or the value of IC50 was more than 200 nM.)
Cc1cc(C)c(NC(=O)Nc2ccc(OC(F)(F)F)cc2)c(C(=O)N[C@H]2CC[C@@H](Nc3cc(N(C)C)c4ccccc4n3)CC2)c1 [compound 718]	3 (Class 3 The value of percent of control at 10^−7 M was more than 60% or the value of IC50 was more than 200 nM.)
CN(C)c1cc(N[C@H]2CC[C@@H](NC(=O)c3cc(Cl)cc(Cl)c3NC(=O)C#Cc3ccccc3)CC2)nc2ccccc12 [compound 719]	3 (Class 3 The value of percent of control at 10^−7 M was more than 60% or the value of IC50 was more than 200 nM.)
CN(C)c1cc(N[C@H]2CC[C@@H](NC(=O)Cc3ccccc3C(=O)Nc3ccc(Cl)cc3Cl)CC2)nc2ccccc12 [compound 723]	3 (Class 3 The value of percent of control at 10^−7 M was more than 60% or the value of IC50 was more than 200 nM.)
